# Starred links: 1 amine or outer side, 2 acyl side, 3 side chain; linkers in the order of their positions; H or OH if unused. Non-standard residues stand in square brackets, D forms with d. Residues, ends and D or L forms follow the SMILES beside them. Arg(Nω,Nω'-propylene) = N[C@@H](CCCNC1=NCCCN1)C(=O)O; dPro(cis-4-NH2) = N[C@H]1CN[C@@H](C(=O)O)C1; X1 = O=C([C@H](CCCNCc1ccccn1)N[*:1])[*:2]; dPro(4S-NH2) = N[C@@H]1CN[C@@H](C(=O)O)C1; Oic = O=C(O)[C@@H]1C[C@@H]2CCCC[C@@H]2N1; 1Nal = N[C@@H](Cc1cccc2ccccc12)C(=O)O; Tiq1c(1S) = O=C(O)[C@H]1NCCc2ccccc21; hArg = N=C(N)NCCCC[C@H](N)C(=O)O; Tic = O=C(O)[C@@H]1Cc2ccccc2CN1; dTic = O=C(O)[C@H]1Cc2ccccc2CN1; Chg = N[C@H](C(=O)O)C1CCCCC1; dDab = NCC[C@@H](N)C(=O)O; Dab = NCC[C@H](N)C(=O)O
# Molecular target: T1, CXCR7 (Homo sapiens, UniProt P25106)
# T1 construct: host or cells: CHO (PathHunter CHO-CXCR7 β-arrestin cells)
# Experiment: CXCR7 β-arrestin recruitment assay (PathHunter CHO-CXCR7, DiscoverX), agonistic assay
# Assay type: cell-based
# Conditions: agonistic assay; CHO CXCR7 β-arrestin cells; 90 min at 37° C.; chemiluminescence; read-out: β-Arrestin EC50
# Experimental: Lyophilized peptides were weighed on a Microbalance (Mettler MX5) and dissolved in DMSO to a final concentration of 10 mM unless otherwise stated. Stock solutions were kept at +4° C., and protected from light.
# 2.2 CXCR7 β-Arrestin Recruitment Assay
# The PathHunter CHO-CXCR7 (DiscoverX) assay was performed according to the manufacturer's protocol. In brief, CHO CXCR7 β-arrestin cells were seeded at a density of 5000 cells per well in 40 μl of F12 medium in black 96-half volume well culture plates and incubated overnight at 37° C. in a humidified atmosphere with 5% CO2. The next day, serial dilutions of PEM compounds have been prepared in DMSO and subsequently diluted in HBSS buffer containing 0.1% BSA.
# For agonistic assay, 10 μl of compound solution or a solution of stromal cell-derived factor-1 (SDF-1) as positive control was added to the cells with a final DMSO concentration of 1% (v/v). The plate was incubated for 90 min at 37° C. in 5% CO2 incubator with gentle shaking (300 rpm) before addition of 40 μl of detection reagent per well. Reaction was developed for 90 min at room temperature in the dark with shaking, and chemiluminescence was measured with a Topcount (Perkin Elmer) luminescence counter.
# T1 sequence (P25106 whole entry): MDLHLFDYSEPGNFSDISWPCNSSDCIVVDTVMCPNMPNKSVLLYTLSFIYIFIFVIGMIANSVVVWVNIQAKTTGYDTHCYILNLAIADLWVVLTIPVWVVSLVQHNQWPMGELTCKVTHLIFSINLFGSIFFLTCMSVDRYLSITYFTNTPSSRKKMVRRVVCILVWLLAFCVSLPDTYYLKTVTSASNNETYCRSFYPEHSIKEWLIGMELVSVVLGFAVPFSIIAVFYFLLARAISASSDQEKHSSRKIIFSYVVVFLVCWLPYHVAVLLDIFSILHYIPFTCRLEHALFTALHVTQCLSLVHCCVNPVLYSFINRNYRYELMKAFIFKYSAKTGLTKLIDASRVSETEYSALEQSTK
row,SMILES,EC50
1,"NCCCC[C@@H]1NC(=O)[C@H](Cc2c[nH]c3ccccc23)NC(=O)[C@@H](Cc2ccccc2)NC(=O)[C@H](Cc2c[nH]c3ccccc23)NC(=O)[C@@H]2Cc3ccccc3CN2C(=O)[C@H]2C[C@@H](N)CN2C1=O [compound 31, cyclo(-Trp-^DPhe-Trp-Lys-^DPro((4R)NH2)-Tic-)] (cyclo(K[dPro(cis-4-NH2)][Tic]W[dF]W))",138 ± 115 nM
2,"CC[C@H](C)[C@@H]1NC(=O)[C@H]([C@@H](C)O)NC(=O)[C@H]2CCCN2C(=O)[C@H](Cc2c[nH]c3ccccc23)NC(=O)[C@H](CCCCN)NC(=O)[C@@H](CCCNC(=N)N)NC1=O [compound 3, cyclo(-Ile-^DArg-Lys-Trp-^DPro-Thr-)] (cyclo(I[dR]KW[dP]T))",78.7 ± 115 nM
3,"N=C(N)NCCCC[C@@H]1NC(=O)[C@H](Cc2c[nH]c3ccccc23)NC(=O)[C@@H](Cc2ccccc2)NC(=O)[C@H](CCCNC(=N)N)NC(=O)[C@@H]2Cc3ccccc3CN2C(=O)[C@H]2C[C@@H](N)CN2C1=O [compound 39, cyclo(-Arg-^DPhe-Trp-hArg-^DPro((4R)N H2)-Tic-)] (cyclo(R[dF]W[hArg][dPro(cis-4-NH2)][Tic]))",352 ± 79.3 nM
4,"N=C(N)NCCC[C@@H]1NC(=O)[C@@H]2Cc3ccccc3CN2C(=O)[C@H]2C[C@H](N)CN2C(=O)[C@H](CCCNC(=N)N)NC(=O)[C@H](Cc2c[nH]c3ccccc23)NC(=O)[C@@H](Cc2ccccc2)NC1=O [compound 40, cyclo(-Arg-^DPhe-Trp-Arg-^DPro((4S)NH2)-Tic-)] (cyclo(R[dF]WR[dPro(4S-NH2)][Tic]))",13.1 ± 4.4 nM
5,"CC[C@H](C)[C@@H]1NC(=O)[C@H]([C@@H](C)O)NC(=O)[C@H]2C[C@@H](N)CN2C(=O)[C@H](Cc2c[nH]c3ccccc23)NC(=O)[C@H](CCCNC(=N)N)NC(=O)[C@@H](CCCNC(=N)N)NC1=O [Ex. 56, cyclo(-Ile-^DArg-Arg-Trp-^DPro((4R)NH2)-Thr-)] (cyclo(I[dR]RW[dPro(cis-4-NH2)]T))",949 ± 75.3 nM
6,"CC[C@H](C)[C@@H]1NC(=O)[C@H]([C@@H](C)O)NC(=O)[C@H]2CCCN2C(=O)[C@H](Cc2c[nH]c3ccccc23)NC(=O)[C@H](CCCNC(=N)N)NC(=O)[C@@H](Cc2c[nH]cn2)NC1=O [compound 12, cyclo(-Ile-^DHis-Arg-Trp-^DPro-Thr-)] (cyclo(I[dH]RW[dP]T))",546 ± 241 nM
7,"N=C(N)NCCC[C@@H]1NC(=O)[C@H](Cc2c[nH]c3ccccc23)NC(=O)[C@@H](Cc2ccccc2)NC(=O)[C@H](Cc2c[nH]c3ccccc23)NC(=O)[C@@H]2Cc3ccccc3CN2C(=O)[C@H]2C[C@@H](N)CN2C1=O [compound 26, cyclo(-Trp-^DPhe-Trp-Arg-^DPro((4R)NH2)-Tic-)] (cyclo(R[dPro(cis-4-NH2)][Tic]W[dF]W))",6.1 ± 3.3 nM
8,"N=C(N)NCCC[C@@H]1NC(=O)[C@H](Cc2c[nH]c3ccccc23)NC(=O)[C@@H](Cc2ccccc2)NC(=O)[C@H](Cc2c[nH]c3ccccc23)NC(=O)[C@@H]2C[C@@H]3CCCC[C@@H]3N2C(=O)[C@H]2C[C@@H](N)CN2C1=O [Ex. 41, cyclo(-Trp-^DPhe-Trp-Arg-^DPro((4R)NH2)-Oic-)] (cyclo([Oic]W[dF]WR[dPro(cis-4-NH2)]))",20.9 ± 33.7 nM
9,"CC[C@H](C)[C@@H]1NC(=O)[C@H]([C@@H](C)O)NC(=O)[C@H]2CCCN2C(=O)[C@H](Cc2c[nH]c3ccccc23)NC(=O)[C@H](CCCNC(=N)N)NC(=O)[C@@H]([C@H](C)O)NC1=O [Ex. 7, cyclo(-Ile-^DThr-Arg-Trp-^DPro-Thr-)] (cyclo(I[dT]RW[dP]T))",53.2 ± 35.8 nM
10,"CC[C@H](C)[C@@H]1NC(=O)[C@H]([C@@H](C)O)NC(=O)[C@H]2CCCN2C(=O)[C@H](Cc2c[nH]c3ccccc23)NC(=O)[C@H](CCCNCc2ccccn2)NC(=O)[C@@H](CCCNC(=N)N)NC1=O [compound 70, cyclo(-Ile-^DArg-Orn(Ar4)-Trp-^DPro-Thr-)] (cyclo(I[dR][X1]W[dP]T))",4.6 ± 0.8 nM
11,"CC[C@H](C)[C@@H]1NC(=O)[C@H]([C@@H](C)O)NC(=O)[C@H]2CCCN2C(=O)[C@H](Cc2ccccc2)NC(=O)[C@H](CCCNC(=N)N)NC(=O)[C@@H](CCCNC(=N)N)NC1=O [Ex. 6, cyclo(-Ile-^DArg-Arg-Phe-^DPro-Thr-)] (cyclo(F[dP]TI[dR]R))",46.4 ± 57.9 nM
12,"C[C@@H](O)[C@@H]1NC(=O)[C@H]2CCCN2C(=O)[C@H](Cc2c[nH]c3ccccc23)NC(=O)[C@H](CCCNC(=N)N)NC(=O)[C@@H](CCCNC(=N)N)NC(=O)[C@H](Cc2cccc3ccccc23)NC1=O [Ex. 10, cyclo(-1Nal-^DArg-Arg-Trp-^DPro-Thr-)] (cyclo([1Nal][dR]RW[dP]T))",28.5 ± 12.6 nM
13,"N[C@@H]1C[C@@H]2C(=O)N3Cc4ccccc4C[C@H]3C(=O)N[C@@H](Cc3c[nH]c4ccccc34)C(=O)N[C@H](Cc3ccccc3)C(=O)N[C@@H](Cc3c[nH]c4ccccc34)C(=O)N[C@@H](Cc3c[nH]cn3)C(=O)N2C1 [compound 32, cyclo(-Trp-^DPhe-Trp-His-^DPro((4R)NH2)-Tic-)] (cyclo(H[dPro(cis-4-NH2)][Tic]W[dF]W))",20.4 ± 6.6 nM
14,"N[C@@H]1C[C@@H]2C(=O)N3CCc4ccccc4[C@H]3C(=O)N[C@@H](Cc3c[nH]c4ccccc34)C(=O)N[C@H](Cc3ccccc3)C(=O)N[C@@H](Cc3c[nH]c4ccccc34)C(=O)N[C@@H](CCCNC3=NCCCN3)C(=O)N2C1 [compound 79, cyclo(-Trp-^DPhe-Trp-Orn(A56)-^DPro((4R)NH2)-Tiq-)] (cyclo(W[dF]W[Arg(Nω,Nω'-propylene)][dPro(cis-4-NH2)][Tiq1c(1S)]))",46.9 ± 12.5 nM
15,"CC[C@H](C)[C@@H]1NC(=O)[C@H]([C@@H](C)O)NC(=O)[C@H]2Cc3ccccc3CN2C(=O)[C@H](Cc2c[nH]c3ccccc23)NC(=O)[C@H](CCCNC(=N)N)NC(=O)[C@@H](CCCNC(=N)N)NC1=O [compound 67, cyclo(-Ile-^DArg-Arg-Trp-^DTic-Thr-)] (cyclo(I[dR]RW[dTic]T))",14.2 ± 5.2 nM
16,"C[C@@H]1NC(=O)[C@@H]2Cc3ccccc3CN2C(=O)[C@H]2C[C@@H](N)CN2C(=O)[C@H](CCCNC(=N)N)NC(=O)[C@H](Cc2c[nH]c3ccccc23)NC(=O)[C@@H](Cc2ccccc2)NC1=O [compound 27, cyclo(-Ala-^DPhe-Trp-Arg-^DPro((4R)NH2)-Tic-)] (cyclo(A[dF]WR[dPro(cis-4-NH2)][Tic]))",322 ± 48.2 nM
17,"CC(C)C[C@@H]1NC(=O)[C@H]([C@@H](C)O)NC(=O)[C@H]2CCCN2C(=O)[C@H](Cc2c[nH]c3ccccc23)NC(=O)[C@H](CCCNC(=N)N)NC(=O)[C@@H](CCCNC(=N)N)NC1=O [compound 60, cyclo(-Leu-^DArg-Arg-Trp-^DPro-Thr-)] (cyclo(L[dR]RW[dP]T))",5.3 ± 3.6 nM
18,"CC[C@H](C)[C@@H]1NC(=O)[C@H]([C@@H](C)O)NC(=O)[C@H]2CCCN2C(=O)[C@H](Cc2c[nH]c3ccccc23)NC(=O)[C@H](CCN)NC(=O)[C@@H](CCCNC(=N)N)NC1=O [Ex. 4, cyclo(-Ile-^DArg-Dab-Trp-^DPro-Thr-)] (cyclo([Dab]W[dP]TI[dR]))",87 ± 84.1 nM
19,"CC[C@H](C)[C@@H]1NC(=O)[C@H]([C@@H](C)O)NC(=O)[C@H]2CCCN2C(=O)[C@H](Cc2c[nH]c3ccccc23)NC(=O)[C@H](CCCNC(=N)N)NC(=O)[C@@H](CCN)NC1=O [Ex. 5, cyclo(-Ile-^DDab-Arg-Trp-^DPro-Thr-)] (cyclo(I[dDab]RW[dP]T))",48.4 ± 67.5 nM
20,"C[C@@H](O)[C@@H]1NC(=O)[C@H]2CCCN2C(=O)[C@H](Cc2c[nH]c3ccccc23)NC(=O)[C@H](CCCNC(=N)N)NC(=O)[C@@H](CCCNC(=N)N)NC(=O)[C@H](C2CCCCC2)NC1=O [compound 59, cyclo(-Chg-^DArg-Arg-Trp-^DPro-Thr-)] (cyclo([Chg][dR]RW[dP]T))",6.7 ± 2.2 nM

# Reference: patent US9637520B2, “Template-fixed peptidomimetics with CXCR7 modulating activity” (POLYPHOR AG, priority 2010, dated 2017)
